In patent publication US9696297B2, “Method for preparing an X chromosome inactivated female human neural cell” (SALK INSTITUTE FOR BIOLOGICAL STUDIES, priority 2009, dated 2017):
Entries after “also recorded” stand apart in the source; their conditions may differ.

Assays:
[1] = system: iPSC-derived neuronal networks; experiment: Calcium imaging of spontaneous calcium transients in iPSC-derived neuronal networks; conditions: drug treatment, concentration not printed (FIG. 11A, 11C, 11D)
Protocol: Neuronal networks derived from human iPSCs were previously infected with the lentiviral vector carrying the Syn::DsRed reporter construct. Cell cultures were washed twice with sterile Krebs HepesHEPES Buffer (KHB) (10 mM HEPES, 4.2 mM NaHCO3, 10 mM dextrose, 1.18 mM MgSO4.2H2O, 1.18 mM KH2PO4, 4.69 mM KCl, 118 mM NaCl, 1.29 mM CaCl2; pH 7.3) and incubated with 0.2-0.5 μM Fluo-4AM (Molecular Probes/Invitrogen, Carlsbad, Calif.) in KHB for 40 minutes at room temperature. Excess dye was removed by washing twice with KHB and an additional 20-minute minutes incubation was done to equilibrate intracellular dye concentration and allow de-esterification. Time-lapse image sequences (200×100× magnification) of 5000 frames were acquired at 28 Hz with a region of 336×256 pixels, using a Hamamatsu ORCA-ER digital camera (Hamamatsu Photonics K.K., Hamamatsu City, Japan) with a 488 mm (FITC) filter on an Olympus IX81 inverted fluorescence confocal microscope (Olympus Optical, Tokyo, Japan). […]
ImageJ, an NIH funded open source, JAVA-based morphometric application, was used to allow manual selection of individual cells on the xy-plane of each movie using circles of 4 pixels (˜5 μm) in diameter. Each cell was considered as an individual region of interest (ROIs) and the average fluorescence intensity was calculated for each ROI in each frame using Time Series Analyzer ImageJ plugin. […]

[2] = system: iPSC-derived neurons; experiment: Whole-cell patch clamp recording of spontaneous postsynaptic currents; format: cell-based, human; conditions: for EPSCs: 10-20 μM
Protocol: Whole-cell patch clamp recordings were performed from cells co-cultured with astrocytes after 6 weeks of differentiation. The bath was constantly perfused with fresh HEPES-buffered saline as described herein. The recording micropipettes (tip resistance 3-6 MΩ) were filled with internal solution described in the Supplemental materials. Recordings were made using Axopatch 200B amplifier (Axon Instruments). Signals were filtered at 2 kHz and sampled at 5 kHz. The whole-cell capacitance was fully compensated. The series resistance was uncompensated but monitored during the experiment by the amplitude of the capacitive current in response to a 10-mV pulse. All recordings were performed at room temperature and chemicals were purchased from Sigma. Frequency and amplitude of spontaneous postsynaptic currents were measured with the Mini Analysis Program software (Synaptosoft, Leonia, N.J.). Statistical comparisons of WT and RTT groups were made using the non-parametric Kolmogorov-Smirnov two-tailed test, with a significance criterion of p=0.05. EPSCs were blocked by CNQX or DNQX (10-20 μM) and IPSPs were inhibited by bicuculine (20 μM).

[3] = system: RTT-derived neurons; experiment: VGLUT1 puncta (glutamatergic synapse) quantification in RTT-iPSC-derived neurons, rescue experiments; format: cell-based, human; conditions: for VGLUT1 puncta number / glutamatergic synapse number: RTT-derived neurons carrying different MeCP2 mutations, IGF1 10 μg/mL for 1 week
[4] = system: MeCP2; experiment: MeCP2 protein level by Western blot in RTT neurons (Q244X); format: cell-based, human; conditions: gentamicin
[5] = system: WT neurons; experiment: VGLUT1 puncta (glutamatergic synapse) quantification in WT-iPSC-derived control neurons; format: cell-based, human; conditions: gentamicin 400 ug/ml, 1 week
Description: Female RTT and control fibroblasts were generated from explants of dermal biopsies following informed consent under protocols approved by the University of California San Diego. The Syn::EGFP or DsRed reporter vector was obtained by cloning the Synapsin-1 promoter in a lentivirus backbone. The shRNA against a target sequence on the human MeCP2 gene was cloned in the LentiLox3.7 lentivirus vector. Retrovirus vectors containing the Oct4, c-Myc, Klf4 and Sox2 human cDNAs from Yamanaka's group (Takahashi et al., 2007, Id.) were obtained from Addgene. Two days after infection, fibroblasts were plated on mitotically inactivated mouse embryonic fibroblasts (Chemicon) with hESC medium. After 2 weeks, iPSC colonies were directly transferred to feeder-free conditions on matrigel-coated dishes (BD) using mTeSRTM1 (StemCell Technologies), and passed manually. […]
Cells were briefly fixed in 4% paraformaldehyde and then permeabilized with 0.5% Triton-X100 in PBS. […] Fluorescent signals were detected using a Zeiss inverted microscope and images were processed with Photoshop CS3 (Adobe Systems). […] For synapse quantification, images were taken by a z-step of 1 μm using Biorad radiance 2100 confocal microscope. Synapse quantification was done blinded to genotype. Only VGLUT1 puncta along Map2-positive processes were counted. […]

COc1ccc(-c2ccc(=N)n(CCCC(=O)O)n2)cc1 [Gabazine]
intracellular calcium transients [1]: increased

N#Cc1cc2[nH]c(=O)c(=O)[nH]c2cc1[N+](=O)[O-] [CNQX]
EPSCs [2]: blocked

gentamicin
rescue of RTT neurons (VGLUT1 puncta) ([3]; RTT neurons, higher gentamicin dose 400 ug/ml, 1 week): did not rescue
glutamatergic synapse numbers (VGLUT1 puncta) ([3]; RTT-Q244X clones 3 and 4 derived neurons, lower gentamicin dose (100 ug/ml), 1 week): increased; also recorded: rescuing; also recorded: rescue
WT MeCP2 protein levels ([4]; RTT neurons (Q244X), after 2 weeks (FIG. 10E)): increased
MeCP2 protein levels ([4]; RTT-Q244X clones 3 and 4 derived neurons, after 1 week): increase
number of VGLUT1 puncta in control neurons [5]: lowered

IGF1: IGF1 (Peprotech), candidate for pharmacological treatment of RTT
VGLUT1 puncta number / glutamatergic synapse number [3]: increased
VGLUT1 puncta number / glutamatergic synapse number ([3]; listed as IFG1): above normal levels

CN1CCc2cc3c(cc2[C@H]1[C@@H]1OC(=O)c2c1ccc1c2OCO1)OCO3 [bicuculine]
IPSPs ([2]; 20 μM): inhibited

O=[N+]([O-])c1cc2nc(O)c(O)nc2cc1[N+](=O)[O-] [DNQX]
EPSCs [2]: blocked
